Results on four molecules are retold here after publication PMC4801368, “Functional and Biochemical Characterization of Alvinella pompejana Cys-Loop Receptor Homologues” (PLoS ONE, 2016).

One assay concerns Alpo6-wt. Nature of the assay: Two-electrode voltage clamp (TEVC) on Alpo6-wt expressed in Xenopus laevis oocytes. It is filed as cell-based, Alvinella pompejana. The following applies: for Hill-coefficients: activation-response curves; for EC50: concentration-activation curve. Here is the method:
(§1) For the expression in Xenopus laevis oocytes, the genes coding for AlpoX-wt were subcloned into the vector pGEM-HE [38]. After NheI-treatment, the linearized plasmid DNA was transcribed to produce capped RNA by using the T7 mMESSAGE-mMACHINE transcription kit (Ambion). Four nanogram of the resulting RNA was injected into the cytosol of stage V and VI oocytes either manually or with an automated injection system (Roboinject, MultiChannelSystems). Oocyte preparations and injections were done using standard procedures.
(§2) One to five days after injection, electrophysiological recordings were performed by conventional or automated TEVC (HiClamp, MultiChannel Systems). […] Unless indicated otherwise, cells were held at a fixed potential of –80 mV throughout the experiment. To minimize heat shock, all preparation and recording procedures were carried out at 16°C [40]. Functional characterization consisted of the screening of potential ligands, the establishment of concentration-activation curves and the determination of ion selectivity. Different small molecules were tested for their effects on AlpoX-wt, such as dopamine, taurine, γ-aminobutyric acid (GABA), glycine and ivermectin (the complete list and the corresponding concentrations are mentioned in Table 1). To determine concentration-activation curves, cells were exposed to increasing concentrations of the test substance. To assess ion selectivity, current-voltage (I-V) relationships were determined in control OR2 solution as well as in medium in which chloride ions were substituted by gluconate. These I-V curves were generated by voltage ramps applied within 4 s and constructed around the reversal potential (Erev ± 80 mV). Leak properties of the cells measured in control conditions were subtracted from the I-V curves measured during exposure to 10 mM GABA.
(§3) Data were acquired either on a manual setup or on an automated recording system (HiClamp, MultiChannel Systems). […] Data acquired with the HiClamp were analyzed using the corresponding software.
In general terms: Two-electrode voltage clamp holds a large cell at a set potential and records current.

The next assay relates to Alpo5-wt. Nature of the assay: Two-electrode voltage clamp (TEVC) on Alpo5-wt expressed in Xenopus laevis oocytes. It is filed as cell-based, Alvinella pompejana. The settings on record: for Hill coefficient / EC50: concentration-activation curve, n = 4; for EC50: Hill fit, -80 mV. Here is the method:
as §1, §2, §3

Assay [1] concerns the target Alpo4-wt (Alvinella pompejana). Nature of the assay: negative stain EM; purified protein 0.03 mg/mL on carbon-coated copper grids, 1% uranyl formate, 120 kV; 2D class averages for Alpo4-wt.

Read-outs that look alike come from different tables or passages of the source.

For the molecule `NCCCC(=O)O` [GABA, γ-aminobutyric acid], in the assay with Alpo6-wt, the agonist type result is “partial agonistic effect” and the Hill-coefficients was 1.94 ± 0.15. Besides, the “current evoked by a saturating concentration relative to current evoked by a saturating concentration of glycine” value in the assay with Alpo6-wt (on average) came to 86%. In addition, in the assay with Alpo5-wt, the agonist type result is “full-agonists” and the Hill coefficient (usually a measure of the steepness of the concentration-response curve) was 2.49 ± 0.09.

With `NCC(=O)O` [glycine], in the assay with Alpo6-wt, the agonist type entry is listed as “full agonists” and the Hill-coefficients is 2.20 ± 0.16. For the same molecule, the EC50 (as a rule, the concentration at which the effect is half-maximal) with Alpo6-wt (n = 3, read-out: EC50 values) turned out to be 22100 ± 4530 µM. In addition, in the assay with Alpo5-wt, the agonist type result is listed as “full-agonists”, it took 291 ± 16.4 µM to reach a half-maximal effect (EC50) and the Hill coefficient is reported as 2.68 ± 0.08.

Turning to `NCCS(=O)(=O)O` [taurine], in the assay with Alpo6-wt, the agonist type entry is “full agonists” and the Hill-coefficients turned out to be 1.87 ± 0.12. Moreover, the EC50 in the assay with Alpo6-wt (n = 3, read-out: EC50 value) is 227 ± 30.5 µM. For the same molecule, in the assay with Alpo5-wt, the agonist type entry is given as “partial agonist”, the EC50 was determined as 370 ± 30.2 µM and the Hill coefficient was found to be 2.51 ± 0.18. The “currents evoked at a saturating concentration relative to responses evoked by a saturating concentration of glycine” value with Alpo5-wt (on average) was 74%.

Consider Alpo4-wt (receptor), for which, in assay [1], the stoichiometry N – broadly, the number of molecules, sites or subunits per partner or assembly – was found to be 5.
